{"source": "patent US20240174662A1", "about": "“SMALL MOLECULE INHIBITORS OF SALT INDUCIBLE KINASES” (Janssen Biotech, Inc., priority 2021, published 2024)", "data": [{"biological_target": "SIK2 (Homo sapiens (Human), UniProt Q9H0K1)", "sequence (Q9H0K1 whole entry, species assumed)": "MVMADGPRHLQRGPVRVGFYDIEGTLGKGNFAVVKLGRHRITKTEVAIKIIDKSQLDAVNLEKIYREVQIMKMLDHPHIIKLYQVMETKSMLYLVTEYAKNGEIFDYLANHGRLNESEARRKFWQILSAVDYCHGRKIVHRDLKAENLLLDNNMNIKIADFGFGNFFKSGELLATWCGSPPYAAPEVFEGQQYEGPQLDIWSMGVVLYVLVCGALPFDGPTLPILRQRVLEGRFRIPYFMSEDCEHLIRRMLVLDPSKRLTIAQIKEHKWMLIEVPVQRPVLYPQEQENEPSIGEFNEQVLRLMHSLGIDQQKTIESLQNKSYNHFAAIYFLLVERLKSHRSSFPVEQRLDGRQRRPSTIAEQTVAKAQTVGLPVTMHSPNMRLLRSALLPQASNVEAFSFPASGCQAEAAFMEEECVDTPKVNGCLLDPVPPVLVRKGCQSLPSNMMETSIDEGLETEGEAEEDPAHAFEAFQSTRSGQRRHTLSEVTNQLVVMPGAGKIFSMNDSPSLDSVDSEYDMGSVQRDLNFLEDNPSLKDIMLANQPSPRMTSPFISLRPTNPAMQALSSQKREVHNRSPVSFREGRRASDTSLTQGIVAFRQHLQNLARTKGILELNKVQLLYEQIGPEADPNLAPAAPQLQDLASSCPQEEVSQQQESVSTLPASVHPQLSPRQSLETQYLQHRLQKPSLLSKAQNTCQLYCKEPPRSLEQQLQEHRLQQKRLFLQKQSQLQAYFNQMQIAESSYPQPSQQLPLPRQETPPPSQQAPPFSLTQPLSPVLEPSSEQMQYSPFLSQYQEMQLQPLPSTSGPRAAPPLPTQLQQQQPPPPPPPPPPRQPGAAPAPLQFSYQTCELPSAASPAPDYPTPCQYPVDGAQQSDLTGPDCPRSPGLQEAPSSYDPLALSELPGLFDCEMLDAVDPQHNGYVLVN", "assay": "SIK2 Enzymatic Assay Version 2 (High ATP)", "format": "biochemical", "conditions": "3 mM ATP and 200 μM HDAC5tide final, ADP-Glo Max luminescence", "protocol": "All steps were performed at room temperature. Compounds were pre-plated onto an assay plate using an Echo acoustic dispenser (Labcyte, […] or […]) at 80 nL per well. Enzyme prepared in assay buffer at 6 nM (2× final concentration) was added at 4 μL per well using the Multidrop Combi (Thermo Fisher-used for all additions in this assay) to the assay plate, spun for 1 min at 1000 rpm (Allegra 6KR Beckman Coulter centrifuge), and incubated with compound for 30 minutes. […] ADP-Glo Max Reagent (prepared and aliquoted as per manufacturer instructions) was then added at 8 μL per well, spun and incubated for 2 hours. ADP-Glo Max Detection (prepared and aliquoted as per manufacturer instructions) was added at 8 μL per well to the assay plate, which was spun and incubated for 1 hour. The plate was then read on the Pherastar (BMG Labtech) using a luminescence read. Gain was set between 2200-2500.", "units": {"IC50": "nM"}, "values": [{"smiles": "CO[C@@H]1CN(C)C[C@@H]1Oc1noc(C)c1-c1ccn2nc(NC(=O)C3CC3)cc2c1", "note": "(relative stereo) [Example 317, *S, *R—N-[5-[3-(4-methoxy-1-methyl-pyrrolidin-3-yl)oxy-5-methyl-isoxazol-4-yl]pyrazolo[1,5-a]pyridin-2-yl]cyclopropanecarboxamide]", "IC50": 67.8}, {"smiles": "Cn1ncc(OC[C@H]2CCN2C[C@@H]2CCCO2)c1-c1ccn2nc(NC(=O)C3CC3)cc2c1", "note": "(relative stereo) [Example 353, (*S)—N-[5-[2-methyl-4-[[1-(tetrahydrofuran-2-ylmethyl)azetidin-2-yl]methoxy]pyrazol-3-yl]pyrazolo[1,5-a]pyridin-2-yl]cyclopropanecarboxamide]", "IC50": 67.9}, {"smiles": "Cc1cc(Nc2cc3cc(-c4c(CO[C@@H]5CN(C)C[C@H]5C)cnn4C)ccn3n2)nc(C)n1", "note": "(relative stereo) [Example 365, Trans-*R, *S—N-(2,6-dimethylpyrimidin-4-yl)-5-[4-[(1,4-dimethylpyrrolidin-3-yl)oxymethyl]-2-methyl-pyrazol-3-yl]pyrazolo[1,5-a]pyridin-2-amine]", "IC50": 1.3}, {"smiles": "Cc1cc(Nc2cc3cc(-c4c(CO[C@@H]5CN(C)C[C@H]5C)cnn4C)ccn3n2)nc(C)n1", "note": "(relative stereo) [Example 366, Trans-*S, *R—N-(2,6-dimethylpyrimidin-4-yl)-5-[4-[(1,4-dimethylpyrrolidin-3-yl)oxymethyl]-2-methyl-pyrazol-3-yl]pyrazolo[1,5-a]pyridin-2-amine]", "IC50": 1.6}, {"smiles": "Cc1cnc(Nc2cc3cc(-c4c(CO[C@@H]5CN(C)C[C@@H]5C)cnn4C)ccn3n2)cn1", "note": "(relative stereo) [Example 380, CIS—*S, *S-5-[4-[(1,4-dimethylpyrrolidin-3-yl)oxymethyl]-2-methyl-pyrazol-3-yl]-N-(5-methylpyrazin-2-yl)pyrazolo[1,5-a]pyridin-2-amine]", "IC50": 3.1}, {"smiles": "CCN1CC2(CC2)[C@@H]1COc1cnn(C)c1-c1ccn2nc(NC(=O)C3CC3)cc2c1", "note": "(single isomer, unassigned) [Example 16, (*R)—N-(5-(4-((5-Ethyl-5-azaspiro[2.3]hexan-4-yl)methoxy)-1-methyl-1H-pyrazol-5-yl)pyrazolo[1,5-a]pyridin-2-yl)cyclopropanecarboxamide]", "IC50": 219}, {"smiles": "Cc1cc(Nc2cc3cc(-c4c(OC[C@@H]5CCN(C)C5=O)cnn4C)ccn3n2)nc(C)n1", "note": "(single isomer, unassigned) [Example 34, (*S)-3-[[5-[2-[(2,6-dimethylpyrimidin-4-yl)amino]pyrazolo[1,5-a]pyridin-5-yl]-1-methyl-pyrazol-4-yl]oxymethyl]-1-methyl-pyrrolidin-2-one]", "IC50": 9.2}, {"smiles": "Cc1cc(Nc2cc3cc(-c4c(OC[C@@H]5CC(=O)N(C)C5)cnn4C)ccn3n2)nc(C)n1", "note": "(single isomer, unassigned) [Example 35, *R-4-[[5-[2-[(2,6-dimethylpyrimidin-4-yl)amino]pyrazolo[1,5-a]pyridin-5-yl]-1-methyl-pyrazol-4-yl]oxymethyl]-1-methyl-pyrrolidin-2-one]", "IC50": 19.2}, {"smiles": "CO[C@@H]1CNC[C@@H]1Oc1cnn(C)c1-c1ccn2nc(NC(=O)C3CC3)cc2c1", "note": "(single isomer, unassigned) [Example 40, N-(5-(4-(((3*S,4*R)-4-methoxypyrrolidin-3-yl)oxy)-1-methyl-1H-pyrazol-5-yl)pyrazolo[1,5-a]pyridin-2-yl)cyclopropanecarboxamide]", "IC50": 444}, {"smiles": "C[C@@H]1[C@@H](COc2cnn(C)c2-c2ccn3nc(NC(=O)C4CC4)cc3c2)CN1C", "note": "(single isomer, unassigned) [Example 41, trans-N-(5-(4-(((2*R,3*S)-1,2-dimethylazetidin-3-yl)methoxy)-1-methyl-1H-pyrazol-5-yl)pyrazolo[1,5-a]pyridin-2-yl)cyclopropanecarboxamide]", "IC50": 14.6}]}]}
